# Measurements reported in US10004701B2, “Methods and compositions for treating infection” (UNIVERSITY OF ROCHESTER, priority 2012, dated 2018).
# Counter-ions that a name gives are not always drawn. Like-named read-outs stand apart in the source and are kept apart here.
# Legend:
# Assay in all cases: AK assay 384-well format, Prestwick library screening
# P. aeruginosa = format: cell-based, Pseudomonas aeruginosa; details: 50 μM final drug concentration; for fold induction at 50 µM: Pseudomonas aeruginosa, 3 h
# [1] = system: S. aureus strain USA300-0114; format: cell-based, Staphylococcus aureus; details: 50 μM final drug concentration; for fold induction at 50 µM: Staphylococcus aureus, USA300, 3 h
# K. pneumoniae = format: cell-based, Klebsiella pneumoniae; details: 50 μM final drug concentration; for fold induction at 50 µM: Klebsiella pneumoniae, 3 h
# E. faecium = format: cell-based, Enterococcus faecium; details: 50 μM final drug concentration; for fold induction at 50 µM: Enterococcus faecium, 3 h
# E. cloacae = format: cell-based, Enterobacter cloacae; details: 50 μM final drug concentration; for fold induction at 50 µM: Enterobacter cloacae, 3 h
# [2] = system: A. baumannii strain 98-37-09; format: cell-based, Acinetobacter baumannii; details: 50 μM final drug concentration; for fold induction at 50 µM: Acinetobacter baumannii, 983709, 3 h
# E. coli = format: cell-based, Escherichia coli; details: 50 μM final drug concentration; for fold induction at 50 µM: Escherichia coli, 3 h
# [3] = planktonic, cutoff for positive 3-fold increase, read-out: AK-based Prestwick Library Screening Results, P. aeruginosa (fold increase in extracellular AK activity)
# [4] = planktonic, cutoff for positive 3-fold increase, read-out: AK-based Prestwick Library Screening Results, S. aureus (fold increase in extracellular AK activity)
# [5] = planktonic, cutoff for positive 3-fold increase, read-out: AK-based Prestwick Library Screening Results, K. pneumoniae (fold increase in extracellular AK activity)
# [6] = planktonic, cutoff for positive 3-fold increase, read-out: AK-based Prestwick Library Screening Results, E. faecium (fold increase in extracellular AK activity)
# [7] = planktonic, cutoff for positive 3-fold increase, read-out: AK-based Prestwick Library Screening Results, E. cloacae (fold increase in extracellular AK activity)
# [8] = planktonic, cutoff for positive 3-fold increase, read-out: AK-based Prestwick Library Screening Results, A. baumannii (fold increase in extracellular AK activity)
# [9] = planktonic, cutoff for positive 3-fold increase, read-out: AK-based Prestwick Library Screening Results, E. coli (fold increase in extracellular AK activity)
# [10] = planktonic, […], read-out: AK-based Prestwick Library Screening Results, P. aeruginosa (fold increase in extracellular AK activity)
# [11] = planktonic, […], read-out: AK-based Prestwick Library Screening Results, S. aureus (fold increase in extracellular AK activity)
# [12] = planktonic, […], read-out: AK-based Prestwick Library Screening Results, K. pneumoniae (fold increase in extracellular AK activity)
# [13] = planktonic, […], read-out: AK-based Prestwick Library Screening Results, E. faecium (fold increase in extracellular AK activity)
# [14] = planktonic, […], read-out: AK-based Prestwick Library Screening Results, E. cloacae (fold increase in extracellular AK activity)
# [15] = planktonic, […], read-out: AK-based Prestwick Library Screening Results, A. baumannii (fold increase in extracellular AK activity)
# [16] = planktonic, […], read-out: AK-based Prestwick Library Screening Results, E. coli (fold increase in extracellular AK activity)
# [17] = cutoff for positive-scoring molecules 3-fold increase
smiles,measurement,setting,value
CC(=O)N(O)CCCCCNC(=O)CCC(=O)N(O)CCCCCNC(=O)CCC(=O)N(O)CCCCCN [Deferoxamine mesylate],fold induction at 50 µM,P. aeruginosa; [3],0.4
same,fold induction at 50 µM,[1]; [4],0.4
same,fold induction at 50 µM,K. pneumoniae; [5],0.5
same,fold induction at 50 µM,E. faecium; [6],0.9
same,fold induction at 50 µM,E. cloacae; [7],0.4
same,fold induction at 50 µM,[2]; [8],0.4
same,fold induction at 50 µM,E. coli; [9],0.4
C[C@H](CCC(=O)O)[C@H]1CC[C@H]2[C@@H]3C(=O)C[C@@H]4CC(=O)CC[C@]4(C)[C@H]3CC(=O)[C@]12C [Dehydrocholic acid],fold induction at 50 µM,"P. aeruginosa; 384-well format, cutoff for positive-scoring molecules 3-fold increase, read-out: AK-based Prestwick Library Screening Results, P. aeruginosa (increase in extracellular AK activity)",1
same,fold induction at 50 µM,"[1]; 384-well format, cutoff for positive-scoring molecules 3-fold increase, read-out: AK-based Prestwick Library Screening Results, S. aureus (increase in extracellular AK activity)",1
same,fold induction at 50 µM,"K. pneumoniae; 384-well format, cutoff for positive-scoring molecules 3-fold increase, read-out: AK-based Prestwick Library Screening Results, K. pneumoniae (increase in extracellular AK activity)",0.8
same,fold induction at 50 µM,"E. faecium; 384-well format, cutoff for positive-scoring molecules 3-fold increase, read-out: AK-based Prestwick Library Screening Results, E. faecium (increase in extracellular AK activity)",1
same,fold induction at 50 µM,"E. cloacae; 384-well format, cutoff for positive-scoring molecules 3-fold increase, read-out: AK-based Prestwick Library Screening Results, E. cloacae (increase in extracellular AK activity)",1.4
same,fold induction at 50 µM,"[2]; 384-well format, cutoff for positive-scoring molecules 3-fold increase, read-out: AK-based Prestwick Library Screening Results, A. baumannii (increase in extracellular AK activity)",1
same,fold induction at 50 µM,"E. coli; 384-well format, cutoff for positive-scoring molecules 3-fold increase, read-out: AK-based Prestwick Library Screening Results, E. coli (increase in extracellular AK activity)",1.3
CC(=O)O[C@H]1CC[C@@]2(C)C(=CC[C@@H]3[C@@H]2CC[C@]2(C)C(=O)CC[C@@H]32)C1 [Dehydroisoandosterone 3-acetate],"AK-based Prestwick Library Screening Results, P. aeruginosa (fold increase in extracellular AK activity)",P. aeruginosa; […],1.1
same,"AK-based Prestwick Library Screening Results, S. aureus (fold increase in extracellular AK activity)",[1]; […],0.8
same,"AK-based Prestwick Library Screening Results, K. pneumoniae (fold increase in extracellular AK activity)",K. pneumoniae; […],0.9
same,"AK-based Prestwick Library Screening Results, E. faecium (fold increase in extracellular AK activity)",E. faecium; […],1.1
same,"AK-based Prestwick Library Screening Results, E. cloacae (fold increase in extracellular AK activity)",E. cloacae; […],1.7
same,"AK-based Prestwick Library Screening Results, A. baumannii (fold increase in extracellular AK activity)",[2]; […],1.1
same,"AK-based Prestwick Library Screening Results, E. coli (fold increase in extracellular AK activity)",E. coli; […],1.0
CCN1C[C@]2(COC)CC[C@H](OC)[C@]34C5C[C@@H]6[C@@H](OC)C[C@@]7(OCO[C@@]7(C13)[C@@H](O)C24)C5[C@H]6OC (some centres unmarked) [Delcorine],fold induction at 50 µM,P. aeruginosa; [10],0.9
same,fold induction at 50 µM,[1]; [11],0.7
same,fold induction at 50 µM,K. pneumoniae; [12],0.7
same,fold induction at 50 µM,E. faecium; [13],0.9
same,fold induction at 50 µM,E. cloacae; [14],1.2
same,fold induction at 50 µM,[2]; [15],0.9
same,fold induction at 50 µM,E. coli; [16],0.8
CCN1C[C@]2(COC)CC[C@H](O)[C@]34C1[C@@](O)([C@@H](OC)[C@H]23)[C@@]1(O)C[C@H](OC)[C@H]2C[C@@H]4[C@@H]1[C@H]2OC [Delsoline],fold induction at 50 µM,P. aeruginosa; [10],0.8
same,fold induction at 50 µM,[1]; [11],0.8
same,fold induction at 50 µM,K. pneumoniae; [12],0.7
same,fold induction at 50 µM,E. faecium; [13],0.9
same,fold induction at 50 µM,E. cloacae; [14],1.3
same,fold induction at 50 µM,[2]; [15],0.9
same,fold induction at 50 µM,E. coli; [16],0.9
CCN1C[C@]2(C)CC[C@H](OC)[C@@]34C1[C@]1(OCO[C@@]15C[C@H](OC)[C@H]1C[C@]3(O)[C@@H]5[C@H]1OC)[C@@H](OC(C)=O)[C@H]24 [Deltaline],fold induction at 50 µM,P. aeruginosa; [10],0.8
same,fold induction at 50 µM,[1]; [11],0.8
same,fold induction at 50 µM,K. pneumoniae; [12],0.7
same,fold induction at 50 µM,E. faecium; [13],0.9
same,fold induction at 50 µM,E. cloacae; [14],1.1
same,fold induction at 50 µM,[2]; [15],0.8
same,fold induction at 50 µM,E. coli; [16],0.9
CN(CCCCCCCCCCN(C)C(=O)Oc1cccc([N+](C)(C)C)c1)C(=O)Oc1cccc([N+](C)(C)C)c1 [Demecarium bromide],fold induction at 50 µM,P. aeruginosa; [10],1.3
same,fold induction at 50 µM,[1]; [11],0.8
same,fold induction at 50 µM,K. pneumoniae; [12],1
same,fold induction at 50 µM,E. faecium; [13],1
same,fold induction at 50 µM,E. cloacae; [14],2
same,fold induction at 50 µM,[2]; [15],1.1
same,fold induction at 50 µM,E. coli; [16],1.4
CN(C)[C@@H]1C(O)=C(C(N)=O)C(=O)[C@@]2(O)C(O)=C3C(=O)c4c(O)ccc(Cl)c4[C@@H](O)[C@H]3C[C@@H]12 [Demeclocycline hydrochloride],fold induction at 50 µM,"P. aeruginosa; planktonic, cutoff for positive-scoring molecules 3-fold increase, read-out: AK-based Prestwick Library Screening Results, P. aeruginosa (fold increase in extracellular AK activity)",0.4
same,fold induction at 50 µM,"[1]; planktonic, cutoff for positive-scoring molecules 3-fold increase, read-out: AK-based Prestwick Library Screening Results, S. aureus (fold increase in extracellular AK activity)",7.1
same,fold induction at 50 µM,"K. pneumoniae; planktonic, cutoff for positive-scoring molecules 3-fold increase, read-out: AK-based Prestwick Library Screening Results, K. pneumoniae (fold increase in extracellular AK activity)",0.2
same,fold induction at 50 µM,"E. faecium; planktonic, cutoff for positive-scoring molecules 3-fold increase, read-out: AK-based Prestwick Library Screening Results, E. faecium (fold increase in extracellular AK activity)",0.9
same,fold induction at 50 µM,"E. cloacae; planktonic, cutoff for positive-scoring molecules 3-fold increase, read-out: AK-based Prestwick Library Screening Results, E. cloacae (fold increase in extracellular AK activity)",1.3
same,fold induction at 50 µM,"[2]; planktonic, cutoff for positive-scoring molecules 3-fold increase, read-out: AK-based Prestwick Library Screening Results, A. baumannii (fold increase in extracellular AK activity)",3.4
same,fold induction at 50 µM,"E. coli; planktonic, cutoff for positive-scoring molecules 3-fold increase, read-out: AK-based Prestwick Library Screening Results, E. coli (fold increase in extracellular AK activity)",0.5
CC[N+](CC)(CC(=O)Nc1c(C)cccc1C)Cc1ccccc1 [Denatonium benzoate],fold induction at 50 µM,"P. aeruginosa; cutoff for positive-scoring molecules 3-fold increase, read-out: AK-based Prestwick Library Screening Results, P. aeruginosa (fold increase in extracellular AK activity)",0.4
same,fold induction at 50 µM,"[1]; cutoff for positive-scoring molecules 3-fold increase, read-out: AK-based Prestwick Library Screening Results, S. aureus (fold increase in extracellular AK activity)",0.4
same,fold induction at 50 µM,"K. pneumoniae; cutoff for positive-scoring molecules 3-fold increase, read-out: AK-based Prestwick Library Screening Results, K. pneumoniae (fold increase in extracellular AK activity)",0.4
same,fold induction at 50 µM,"E. faecium; cutoff for positive-scoring molecules 3-fold increase, read-out: AK-based Prestwick Library Screening Results, E. faecium (fold increase in extracellular AK activity)",0.9
same,fold induction at 50 µM,"E. cloacae; cutoff for positive-scoring molecules 3-fold increase, read-out: AK-based Prestwick Library Screening Results, E. cloacae (fold increase in extracellular AK activity)",0.4
same,fold induction at 50 µM,"[2]; cutoff for positive-scoring molecules 3-fold increase, read-out: AK-based Prestwick Library Screening Results, A. baumannii (fold increase in extracellular AK activity)",0.3
same,fold induction at 50 µM,"E. coli; cutoff for positive-scoring molecules 3-fold increase, read-out: AK-based Prestwick Library Screening Results, E. coli (fold increase in extracellular AK activity)",0.5
C[C@]12CC[C@H]3[C@@H](CCC4=CC(=O)CC[C@@]43C)[C@@H]1CC[C@@H]2C(=O)CO [Deoxycorticosterone],"AK-based Prestwick Library Screening Results, P. aeruginosa (fold increase in extracellular AK activity)",P. aeruginosa; [17],1.3
same,"AK-based Prestwick Library Screening Results, S. aureus (fold increase in extracellular AK activity)",[1]; [17],1.6
same,"AK-based Prestwick Library Screening Results, K. pneumoniae (fold increase in extracellular AK activity)",K. pneumoniae; [17],1.2
same,"AK-based Prestwick Library Screening Results, E. faecium (fold increase in extracellular AK activity)",E. faecium; [17],1.2
same,"AK-based Prestwick Library Screening Results, E. cloacae (fold increase in extracellular AK activity)",E. cloacae; [17],1.3
same,"AK-based Prestwick Library Screening Results, A. baumannii (fold increase in extracellular AK activity)",[2]; [17],1.3
same,"AK-based Prestwick Library Screening Results, E. coli (fold increase in extracellular AK activity)",E. coli; [17],1.2
Cc1cc(N)c2ccccc2[n+]1CCCCCCCCCC[n+]1c(C)cc(N)c2ccccc21 [Dequalinium dichloride],fold induction at 50 µM,P. aeruginosa; [3],2.3
same,fold induction at 50 µM,[1]; [4],1.2
same,fold induction at 50 µM,K. pneumoniae; [5],1.6
same,fold induction at 50 µM,E. faecium; [6],1.1
same,fold induction at 50 µM,E. cloacae; [7],1.8
same,fold induction at 50 µM,[2]; [8],3.2
same,fold induction at 50 µM,E. coli; [9],3
